Experimental findings from the NIST ThermoML archive (doi:10.1016/j.jct.2006.06.009) are described below.

Numbers after ± are expanded uncertainties.

A word on the mass density: it is mass per unit of volume. The term viscosity denotes the internal friction of a fluid under shear.

For data set [1] the following is noted: 308.15 K; 101 kPa; Liquid.
Data set [2] can be described thus: xn = mol fraction of the nth substance listed. To be noted: 308.15 K, 101 kPa, Liquid.

With `ClC(Cl)C(Cl)Cl` [1,1,2,2-tetrachloroethane], in data set [1], the mass density is 1572.4 ± 2.9 kg/m3 and the viscosity was determined as 1.334 ± 0.033 mPa·s.
As to `CNC(C)=O` [N-methylacetamide] + ClC(Cl)=C(Cl)Cl, the mass density in data set [2] (x1 = 0.0571) is on record as 1573.5 ± 2.3 kg/m3; in data set [2] (x1 = 0.2569) it was 1463.9 ± 2.1 kg/m3; in data set [2] (x1 = 0.3691), 1396.5 ± 2 kg/m3; in data set [2] (x1 = 0.4749), 1330.8 ± 1.8 kg/m3; in data set [2] (x1 = 0.5719) it was 1268.3 ± 1.7 kg/m3; in data set [2] (x1 = 0.6637), 1206.2 ± 1.6 kg/m3. Moreover, the mass density in data set [2] (x1 = 0.7039) is given as 1178 ± 1.6 kg/m3; in data set [2] (x1 = 0.8385) it was 1078.2 ± 1.4 kg/m3; in data set [2] (x1 = 0.9666) it was 974.6 ± 1.2 kg/m3; in data set [2] (x1 = 1) it was 945.9 ± 1.2 kg/m3. Further, the viscosity was determined as 0.801 ± 0.014 mPa·s in data set [2] (x1 = 0.0571); 1.541 ± 0.021 mPa·s in data set [2] (x1 = 0.2569); 1.895 ± 0.024 mPa·s in data set [2] (x1 = 0.3691); 2.195 ± 0.027 mPa·s in data set [2] (x1 = 0.4749); 2.411 ± 0.03 mPa·s in data set [2] (x1 = 0.5719); 2.61 ± 0.032 mPa·s in data set [2] (x1 = 0.6637). Moreover, the viscosity in data set [2] (x1 = 0.7039) was 2.696 ± 0.033 mPa·s; in data set [2] (x1 = 0.8385), 2.981 ± 0.037 mPa·s; in data set [2] (x1 = 0.9666) it was 3.245 ± 0.04 mPa·s; in data set [2] (x1 = 1), 3.312 ± 0.04 mPa·s.
Consider `ClC=C(Cl)Cl` [trichloroethene] + CNC(C)=O, for which, in data set [2] (x2 = 0), the mass density was found to be 1438.5 ± 2 kg/m3 and the viscosity came to 0.46 ± 0.012 mPa·s.
Regarding `ClCCCl` [1,2-dichloroethane], in data set [1], the mass density is recorded as 1230.8 ± 1.7 kg/m3 and the viscosity is recorded as 0.646 ± 0.013 mPa·s.
For `ClC(Cl)=C(Cl)Cl` [tetrachloroethene] + CNC(C)=O, in data set [2] (x2 = 0), the mass density is recorded as 1599.2 ± 2.3 kg/m3 and the viscosity is given as 0.723 ± 0.014 mPa·s.
Take `CNC(C)=O` [N-methylacetamide]: in data set [1], the mass density is on record as 945.9 ± 1.2 kg/m3 and the viscosity was 3.312 ± 0.04 mPa·s.
For `ClC(Cl)C(Cl)Cl` [1,1,2,2-tetrachloroethane] + CNC(C)=O, in data set [2] (x2 = 0), the mass density is on record as 1572.4 ± 2.9 kg/m3 and the viscosity stood at 1.334 ± 0.033 mPa·s.
As for `CNC(C)=O` [N-methylacetamide] + ClC(Cl)C(Cl)Cl, the mass density in data set [2] (x1 = 0.0621) stood at 1545.5 ± 2.8 kg/m3; in data set [2] (x1 = 0.2627), 1450.5 ± 2.4 kg/m3; in data set [2] (x1 = 0.3728), 1393 ± 2.2 kg/m3; in data set [2] (x1 = 0.4796) it was 1331.6 ± 2 kg/m3; in data set [2] (x1 = 0.5797) it was 1268.9 ± 1.9 kg/m3; in data set [2] (x1 = 0.6722), 1206.5 ± 1.7 kg/m3. The mass density was determined as 1143.7 ± 1.6 kg/m3 in data set [2] (x1 = 0.7594), 1080.7 ± 1.5 kg/m3 in data set [2] (x1 = 0.8413), 974.8 ± 1.2 kg/m3 in data set [2] (x1 = 0.9679) and 945.9 ± 1.2 kg/m3 in data set [2] (x1 = 1). Moreover, the viscosity in data set [2] (x1 = 0.0621) is recorded as 1.499 ± 0.037 mPa·s; in data set [2] (x1 = 0.2627), 2.226 ± 0.053 mPa·s; in data set [2] (x1 = 0.3728), 2.726 ± 0.064 mPa·s; in data set [2] (x1 = 0.4796) it was 3.398 ± 0.078 mPa·s; in data set [2] (x1 = 0.5797), 3.936 ± 0.09 mPa·s; in data set [2] (x1 = 0.6722) it was 4.291 ± 0.097 mPa·s. Besides, the viscosity is given as 4.404 ± 0.099 mPa·s in data set [2] (x1 = 0.7594), 4.036 ± 0.091 mPa·s in data set [2] (x1 = 0.8413), 3.533 ± 0.08 mPa·s in data set [2] (x1 = 0.9679) and 3.312 ± 0.075 mPa·s in data set [2] (x1 = 1).
As for `CNC(C)=O` [N-methylacetamide] + ClCCCl, the mass density in data set [2] (x1 = 0.063) is 1213.8 ± 1.6 kg/m3; in data set [2] (x1 = 0.134), 1194.7 ± 1.6 kg/m3; in data set [2] (x1 = 0.2632), 1159.1 ± 1.5 kg/m3; in data set [2] (x1 = 0.3875), 1124.3 ± 1.5 kg/m3; in data set [2] (x1 = 0.4442), 1108.2 ± 1.4 kg/m3; in data set [2] (x1 = 0.5064), 1090.5 ± 1.4 kg/m3. Also, the mass density in data set [2] (x1 = 0.6863) came to 1038.5 ± 1.3 kg/m3; in data set [2] (x1 = 0.807), 1003.1 ± 1.3 kg/m3; in data set [2] (x1 = 0.931), 966.5 ± 1.2 kg/m3; in data set [2] (x1 = 1), 945.9 ± 1.2 kg/m3. For the same compound, the viscosity in data set [2] (x1 = 0.063) is recorded as 0.705 ± 0.014 mPa·s; in data set [2] (x1 = 0.134) it was 0.785 ± 0.014 mPa·s; in data set [2] (x1 = 0.2632) it was 1.024 ± 0.016 mPa·s; in data set [2] (x1 = 0.3875), 1.342 ± 0.019 mPa·s; in data set [2] (x1 = 0.4442) it was 1.5 ± 0.02 mPa·s; in data set [2] (x1 = 0.5064), 1.694 ± 0.022 mPa·s. Also, the viscosity in data set [2] (x1 = 0.6863) worked out at 2.245 ± 0.028 mPa·s; in data set [2] (x1 = 0.807) it was 2.651 ± 0.033 mPa·s; in data set [2] (x1 = 0.931), 3.083 ± 0.038 mPa·s; in data set [2] (x1 = 1), 3.312 ± 0.04 mPa·s.
Take `ClC=C(Cl)Cl` [trichloroethene]: in data set [1], the mass density was 1438.5 ± 2 kg/m3 and the viscosity came to 0.46 ± 0.012 mPa·s.
For `ClCC(Cl)Cl` [1,1,2-trichloroethane] the same measures were 1416.1 ± 3.2 kg/m3 and 0.903 ± 0.017 mPa·s.
`ClCCCl` [1,2-dichloroethane] + CNC(C)=O: in data set [2] (x2 = 0), the mass density amounted to 1230.8 ± 1.7 kg/m3 and the viscosity is 0.646 ± 0.013 mPa·s.
As to `CNC(C)=O` [N-methylacetamide] + ClC=C(Cl)Cl, the mass density in data set [2] (x1 = 0.0514) was determined as 1417.9 ± 2 kg/m3; in data set [2] (x1 = 0.2353) it was 1340.4 ± 1.9 kg/m3; in data set [2] (x1 = 0.3404), 1293.3 ± 1.8 kg/m3; in data set [2] (x1 = 0.4437) it was 1244.6 ± 1.7 kg/m3; in data set [2] (x1 = 0.5419) it was 1196.4 ± 1.6 kg/m3; in data set [2] (x1 = 0.6357), 1148.5 ± 1.5 kg/m3. The mass density in data set [2] (x1 = 0.7288) came out at 1099.4 ± 1.4 kg/m3; in data set [2] (x1 = 0.8196), 1049.9 ± 1.4 kg/m3; in data set [2] (x1 = 0.9692), 964.4 ± 1.2 kg/m3; in data set [2] (x1 = 1) it was 945.9 ± 1.2 kg/m3. For the same compound, the viscosity in data set [2] (x1 = 0.0514) amounted to 0.564 ± 0.013 mPa·s; in data set [2] (x1 = 0.2353), 1.015 ± 0.016 mPa·s; in data set [2] (x1 = 0.3404), 1.291 ± 0.018 mPa·s; in data set [2] (x1 = 0.4437), 1.578 ± 0.021 mPa·s; in data set [2] (x1 = 0.5419), 1.856 ± 0.024 mPa·s; in data set [2] (x1 = 0.6357) it was 2.15 ± 0.027 mPa·s. Further, the viscosity in data set [2] (x1 = 0.7288) was found to be 2.45 ± 0.03 mPa·s; in data set [2] (x1 = 0.8196), 2.74 ± 0.034 mPa·s; in data set [2] (x1 = 0.9692), 3.215 ± 0.039 mPa·s; in data set [2] (x1 = 1), 3.312 ± 0.04 mPa·s.
On to `CNC(C)=O` [N-methylacetamide] + ClCC(Cl)Cl, for which, in data set [2] (x1 = 1), the mass density was found to be 945.9 ± 1.2 kg/m3 and the viscosity is on record as 3.312 ± 0.04 mPa·s.
As for `ClCC(Cl)Cl` [1,1,2-trichloroethane] + CNC(C)=O, the mass density in data set [2] (x2 = 0) is reported as 1416.1 ± 3.2 kg/m3; in data set [2] (x2 = 0.0706), 1390.4 ± 3 kg/m3; in data set [2] (x2 = 0.2356), 1324.2 ± 2.6 kg/m3; in data set [2] (x2 = 0.3484), 1276 ± 2.3 kg/m3; in data set [2] (x2 = 0.452), 1229.9 ± 2.1 kg/m3; in data set [2] (x2 = 0.5461), 1186.3 ± 1.9 kg/m3. For the same compound, the mass density is on record as 1139.1 ± 1.7 kg/m3 in data set [2] (x2 = 0.643), 1092.7 ± 1.6 kg/m3 in data set [2] (x2 = 0.7345), 1045.8 ± 1.4 kg/m3 in data set [2] (x2 = 0.8235) and 975.3 ± 1.3 kg/m3 in data set [2] (x2 = 0.9497). Further, the viscosity turned out to be 0.903 ± 0.017 mPa·s in data set [2] (x2 = 0); 1.003 ± 0.018 mPa·s in data set [2] (x2 = 0.0706); 1.365 ± 0.022 mPa·s in data set [2] (x2 = 0.2356); 1.771 ± 0.026 mPa·s in data set [2] (x2 = 0.3484); 2.18 ± 0.03 mPa·s in data set [2] (x2 = 0.452); 2.537 ± 0.034 mPa·s in data set [2] (x2 = 0.5461). The viscosity in data set [2] (x2 = 0.643) stood at 2.88 ± 0.038 mPa·s; in data set [2] (x2 = 0.7345) it was 3.105 ± 0.04 mPa·s; in data set [2] (x2 = 0.8235), 3.249 ± 0.041 mPa·s; in data set [2] (x2 = 0.9497), 3.345 ± 0.041 mPa·s.
As for `ClC(Cl)=C(Cl)Cl` [tetrachloroethene], in data set [1], the mass density was determined as 1599.2 ± 2.3 kg/m3 and the viscosity amounted to 0.723 ± 0.014 mPa·s.
